In the assay the test system is P388 leukemia ip, CD2F1 mice, survival T/C. The experiment in a line: NCI In Vivo Anticancer Drug Screen. Data for tumor model P388 Leukemia (intraperitoneal) in CD2F1 (CDF1) mice. To be noted: endpoint: median survival time, higher = longer survival. An outline of the steps: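 Mice carrying the transplanted tumor received test compound or vehicle. Survival was recorded in each group, and the value is the treated-group measurement divided by that of the vehicle-treated control group.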

Where [1] appears, read: dose: 50.0 mg/kg/injection, schedule: Q01DX009 (ip), vehicle: saline.
The mark [2] stands for this setting: dose: 100.0 mg/kg/injection, schedule: Q01DX009 (ip), vehicle: saline.
Where [3] appears, read: dose: 200.0 mg/kg/injection, schedule: Q01DX009 (ip), vehicle: saline.
The mark [4] stands for this setting: dose: 25.0 mg/kg/injection, schedule: Q01DX009 (ip), vehicle: distilled water + Tween-80.
The mark [5] stands for this setting: dose: 50.0 mg/kg/injection, schedule: Q01DX009 (ip), vehicle: distilled water + Tween-80.
Where [6] appears, read: dose: 100.0 mg/kg/injection, schedule: Q01DX009 (ip), vehicle: distilled water + Tween-80.
Where [7] appears, read: dose: 200.0 mg/kg/injection, schedule: Q01DX009 (ip), vehicle: distilled water + Tween-80.
[8] abbreviates: dose: 50.0 mg/kg/injection, schedule: Q01DX005 (ip), vehicle: saline with Tween-80.
The mark [9] stands for this setting: dose: 100.0 mg/kg/injection, schedule: Q01DX005 (ip), vehicle: saline with Tween-80.
Where [10] appears, read: dose: 60.0 mg/kg/injection, schedule: Q01DX005 (ip), vehicle: saline with Tween-80.
Setting [11] is: dose: 120.0 mg/kg/injection, schedule: Q01DX005 (ip), vehicle: saline with Tween-80.
Setting [12] is: dose: 240.0 mg/kg/injection, schedule: Q01DX005 (ip), vehicle: saline with Tween-80.
Where [13] appears, read: dose: 200.0 mg/kg/injection, schedule: Q01DX005 (ip), vehicle: saline with Tween-80.

Several values for one entry are separate records, joined by “and”; a condition that tells them apart may be missing. Identical values can stand only once. Toxic doses and inconclusive results are not listed.

Take `O=[N+]([O-])c1ccc(S(=O)C2CCCCC2Cl)c([N+](=O)[O-])c1` (centres undefined): the T/C by setting is: (dose: 100.0 mg/kg/injection, schedule: Q04DX002 (ip), vehicle: Klucel (hydroxypropylcellulose) (HPC)) 110 % of control; (dose: 200.0 mg/kg/injection, schedule: Q04DX002 (ip), vehicle: Klucel (hydroxypropylcellulose) (HPC)) 113 % of control.

For the compound `Cc1cc(NC(=S)SC(C)C)ccc1Cl`, the T/C is 99 % of control under setting [1], 102 % of control under setting [2] and 102 % of control under setting [3].

On to `Cc1c(COC(=O)NC2CCCCC2)c(COC(=O)NC2CCCCC2)c2c3ccccc3c3ccccc3n12`, for which the T/C reads like this: (dose: 12.5 mg/kg/injection, schedule: Q01DX009 (ip), vehicle: distilled water + Tween-80) 106 % of control; under setting [4], 100 % of control and 93 % of control; under setting [5], 101 % of control and 106 % of control; under setting [6], 101 % of control and 110 % of control; under setting [7], 110 % of control.

In the case of `COC1=CC(=O)C(CC=C(C)C)=CC1=O`, the T/C is 100 % of control (dose: 50.0 mg/kg/injection, schedule: Q01DX005 (ip), vehicle: Klucel (hydroxypropylcellulose) (HPC)); 102 % of control (dose: 100.0 mg/kg/injection, schedule: Q01DX005 (ip), vehicle: Klucel (hydroxypropylcellulose) (HPC)); 105 % of control (dose: 200.0 mg/kg/injection, schedule: Q01DX005 (ip), vehicle: Klucel (hydroxypropylcellulose) (HPC)).

Regarding `CN(C)CCCNC(=O)NCCCCCCNC(=O)NCCCN(C)C`, the T/C is 93 % of control under setting [8] and 86 % of control under setting [9].

Regarding `COc1ccc(/C=N/NC(=O)c2ccncc2)cc1F`, the T/C was 100 % of control (dose: 15.0 mg/kg/injection, schedule: Q01DX005 (ip), vehicle: saline with Tween-80); 99 % of control (dose: 30.0 mg/kg/injection, schedule: Q01DX005 (ip), vehicle: saline with Tween-80); 101 % of control and 88 % of control under setting [10]; 88 % of control under setting [11]; 95 % of control under setting [12].

For `c1cc2c3c(cccc3c1)C(C1Cc3cccc4cccc1c34)C2` (centres undefined), the T/C was 97 % of control (dose: 50.0 mg/kg/injection, schedule: Q01DX009 (ip), vehicle: Klucel (hydroxypropylcellulose) (HPC)); 100 % of control (dose: 100.0 mg/kg/injection, schedule: Q01DX009 (ip), vehicle: Klucel (hydroxypropylcellulose) (HPC)); 88 % of control (dose: 200.0 mg/kg/injection, schedule: Q01DX009 (ip), vehicle: Klucel (hydroxypropylcellulose) (HPC)).

With `CCNC(=O)c1ccccc1S(C)=O` (centres undefined), the T/C under setting [10] was 99 % of control, the T/C under setting [11] was 111 % of control and the T/C under setting [12] is 104 % of control.

With `CC(C)(Cc1nocc1C(C)(C)CC#N)c1cc(CC(C)(C)C2(C)OCCO2)no1`, the T/C was 95 % of control under setting [10] and 88 % of control under setting [11].

For the compound `CC(CN=Cc1ccccc1O)N=Cc1ccccc1O.[Zn]` (centres undefined), the T/C by setting is: (dose: 6.25 mg/kg/injection, schedule: Q01DX009 (ip), vehicle: saline with Tween-80) 103 % of control; (dose: 12.5 mg/kg/injection, schedule: Q01DX009 (ip), vehicle: saline with Tween-80) 111 % of control; (dose: 25.0 mg/kg/injection, schedule: Q01DX009 (ip), vehicle: saline with Tween-80) 93 % of control and 97 % of control; (dose: 50.0 mg/kg/injection, schedule: Q01DX009 (ip), vehicle: saline with Tween-80) 99 % of control.

As to `O=C1C2CCCN2C(=O)N1c1ccc([N+](=O)[O-])cc1` (centres undefined), the T/C runs as follows: (dose: 100.0 mg/kg/injection, schedule: Q01DX001 (ip), vehicle: Klucel (hydroxypropylcellulose) (HPC)) 97 % of control; (dose: 200.0 mg/kg/injection, schedule: Q01DX001 (ip), vehicle: Klucel (hydroxypropylcellulose) (HPC)) 97 % of control; (dose: 400.0 mg/kg/injection, schedule: Q01DX001 (ip), vehicle: Klucel (hydroxypropylcellulose) (HPC)) 99 % of control.

Regarding `O=P(O)(O)CCCNO`, the T/C reads like this: (dose: 60.0 mg/kg/injection, schedule: Q01DX005 (ip), vehicle: saline) 95 % of control; (dose: 120.0 mg/kg/injection, schedule: Q01DX005 (ip), vehicle: saline) 91 % of control; (dose: 240.0 mg/kg/injection, schedule: Q01DX005 (ip), vehicle: saline) 90 % of control.

Turning to `CCOC(=O)CC(=O)c1sc(Nc2ccccc2)c(C#N)c1N`, the T/C reads like this: under setting [8], 98 % of control; under setting [9], 90 % of control; under setting [13], 90 % of control.

On to `CCC/C(=N\NC(=S)N1CCCCCC1)c1ccccn1`, for which the T/C was 117 % of control (dose: 25.0 mg/kg/injection, schedule: Q01DX005 (ip), vehicle: saline with Tween-80) and 124 % of control under setting [8].

In the case of `CCOC(=O)C(Cc1c[nH]c2ccccc12)NC(=O)[C@@]1(O)[C@H](O)[C@]2(CC)C=CCN3CC[C@@]4(c5cc([C@@]6(C(=O)OC)C[C@@H]7CN(CCc8c6[nH]c6ccccc86)C[C@](O)(CC)C7)c(OC)cc5N(C)[C@@H]14)[C@@H]32` (some centres undefined), the T/C by setting is: (dose: 1.0 mg/kg/injection, schedule: Q01DX001 (ip), vehicle: saline) 108 % of control and 109 % of control; (dose: 2.0 mg/kg/injection, schedule: Q01DX001 (ip), vehicle: saline) 108 % of control and 112 % of control; (dose: 4.0 mg/kg/injection, schedule: Q01DX001 (ip), vehicle: saline) 109 % of control and 116 % of control; (dose: 8.0 mg/kg/injection, schedule: Q01DX001 (ip), vehicle: saline) 115 % of control and 118 % of control; (dose: 32.0 mg/kg/injection, schedule: Q01DX001 (ip), vehicle: saline) 153 % of control and 157 % of control.

In the case of `COC(=O)CC1(C(=O)OC)Oc2ccc(Br)cc2C(=O)N1c1ccc(Br)cc1Cl` (centres undefined), the T/C runs as follows: under setting [8], 96 % of control; under setting [9], 96 % of control; under setting [13], 91 % of control.

Regarding `CNC(=O)C1CCC(=O)N1Cc1c[nH]c2ccccc12` (centres undefined), the T/C by setting is: under setting [10], 94 % of control; under setting [11], 94 % of control; under setting [12], 92 % of control.

Regarding `Cc1cn(CCCn2cnc3cncnc32)c(=O)[nH]c1=O`, the T/C runs as follows: (dose: 50.0 mg/kg/injection, schedule: Q01DX005 (ip), vehicle: suspension in saline) 98 % of control; (dose: 100.0 mg/kg/injection, schedule: Q01DX005 (ip), vehicle: suspension in saline) 105 % of control; (dose: 200.0 mg/kg/injection, schedule: Q01DX005 (ip), vehicle: suspension in saline) 96 % of control.

In the case of `C[C@]12CC[C@H](OC(=O)/C=C\c3ccc(N(CCCl)CCCl)cc3)CC1CC[C@@H]1C2CC[C@]2(C)NC(=O)CCC12` (some centres undefined), the T/C runs as follows: (dose: 100.0 mg/kg/injection, schedule: Q01DX001 (ip), vehicle: saline with Tween-80) 100 % of control; (dose: 200.0 mg/kg/injection, schedule: Q01DX001 (ip), vehicle: saline with Tween-80) 100 % of control; (dose: 400.0 mg/kg/injection, schedule: Q01DX001 (ip), vehicle: saline with Tween-80) 100 % of control.

On to `O=c1ccn2ccccc2n1`, for which the T/C is, setting by setting: under setting [1], 95 % of control; (dose: 50.0 mg/kg/injection, schedule: Q04DX003 (ip), vehicle: saline) 91 % of control; under setting [2], 86 % of control; (dose: 100.0 mg/kg/injection, schedule: Q04DX003 (ip), vehicle: saline) 100 % of control; under setting [3], 95 % of control; (dose: 200.0 mg/kg/injection, schedule: Q04DX003 (ip), vehicle: saline) 91 % of control.

Take `O=c1c(OCc2ccccc2)cccn1Cc1ccccc1`: the T/C is 92 % of control under setting [4]; 95 % of control under setting [5]; 100 % of control under setting [6]; 95 % of control under setting [7]; 101 % of control (dose: 400.0 mg/kg/injection, schedule: Q01DX009 (ip), vehicle: distilled water + Tween-80).

For `CC(C)(C)C1=NN=C(C(C)(C)C)CSC1`, the T/C by setting is: under setting [10], 108 % of control; under setting [11], 103 % of control; under setting [12], 104 % of control.

The record behind these values is PubChem BioAssay AID330 (DTP/NCI, 2004).
